Experimental data from patent publication US9221900B2, “Methods for identifying safe and functional humanized antibodies” (AC IMMUNE S.A., priority 2010, dated 2015).

Experiments:
[1] = system: enriched microglia; experiment: TNFα release by enriched microglia; format: cell-based, rat; details: 24 h of treatment
Experimental: FIG. 6 provides a graph corresponding to the experiments described in Example 6.6. […] The release of TNFα by enriched microglia was measured following 24 h of treatment (see Methods). The mean (±SEM) of three independent experiments is shown. Statistical analysis was done using one-way ANOVA followed by Tukey post-hoc multiple comparison.
To link the increased microglia activity more directly to a downstream pro-inflammatory readout, the TNFα release by primary cell cultures enriched for microglia was measured ([…] Iba1^+, not shown). The release of pro-inflammatory TNFα by enriched microglia when treated with Aβ1-42 oligomers was reduced in the presence of all anti-Aβ monoclonal antibodies tested (FIG. 6). […] Thus, an anti-Aβ IgG4 monoclonal antibody may have a more desirable profile as compared to an anti-Aβ IgG1 monoclonal antibody, combining neuroprotective effects and ability to promote Aβ engulfment by microglia with limited microglial activation.
Rat cortical cultures enriched for microglia (>60% Iba1^+ of total DAPI^+ cells) were treated with 10 μM Aβ1-42 oligomers with or without 100 μg/mL antibodies for 6 h and 24 h. LPS (Sigma) at 1 μg/mL was used as a positive control stimulus. […]

[2] = molecular target: Aβ1-42 (Homo sapiens, UniProt P05067); experiment: Aβ ELISA, binding to Aβ peptides and Aβ1-42 assembly states; design: purchased Bachem; details: ELISA; monomeric, oligomeric, fibers, oligomer assemblies
Excerpt: (§1) FIG. 1 provides graphs and immunohistochemical images corresponding to the experiments described in Example 6.1 and 6.2. […] As a control, an anti-Aβ IgG monoclonal antibody with a N-terminal epitope was used. […] The mean (±SEM) of two assays is shown.
(§2) Murine anti-Aβ monoclonal antibodies were generated by immunizing mice with an Aβ peptide antigen using a liposomal vaccine formulation as previously described (Muhs et al., 2007). Several criteria were used to select candidate antibodies, including the ability to bind multiple Aβ species and to inhibit Aβ1-42 assembly into small cytotoxic peptide aggregates. A monoclonal murine mAb with an IgG2b backbone (mMABT) was selected for in vivo functionality studies using both single-transgenic murine mutant human APP and double-transgenic murine mutant human APP/PS1 models of Alzheimer's Disease. […] These ranged from monomeric and oligomeric Aβ1-42 fractions isolated by size-exclusion chromatography (SEC), mature Aβ1-42 fibers, to a more complex mixture of highly neurotoxic Aβ1-42 oligomer assemblies, ranging in size from dimers and trimers to higher molecular-weight multimers (see FIG. 8).

[3] = system: Aβ1-42; experiment: as above; design: species or system human; details: Aβ ELISA; human and murine Aβ1-42 and human Aβ1-40
Excerpt: as §1, §2

Aβ1-42 (Homo sapiens, UniProt P05067), sequence (P05067 672-713): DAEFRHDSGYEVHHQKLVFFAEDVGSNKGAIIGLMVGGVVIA

MABT: humanized anti-Aβ monoclonal antibody of IgG4 isotype, affinity matured and humanized form of mouse mMABT
release of TNFα by enriched microglia treated with Aβ1-42 oligomers [1]: greatest effect
binding to different Aβ1-42 peptide preparations [2]: highly comparable among the different Aβ1-42 assembly states
binding to different Aβ peptides [3]: bound with high affinity
